Reference: US8198236B2, “Methods and compositions for the treatment of cancer” (Washington University, priority 2007, dated 2012)

Assays:
[1] = mouse, in vivo
Experimental: Hemotoxylin and eosin (H&E) staining was performed on tumor xenograft tissue, skin and intestine harvested at the end of Mesd treatment.
FIG. 24D: H&E staining of tail vertebrae treated with PBS, Mesd or Mesd peptide.

Wnt signaling [2] = assay: Wnt signaling in MMTV-Wnt1 tumors (GST-E-cadherin pull-down, c-Myc expression); format: in vivo, mice; conditions: GST-E-cadherin pull-down and c-Myc expression
Experimental: The GST-E-cadherin pulldown assay was performed as previously described (2). Cells expressing control or LRP6 shRNA were treated with L cells or Wnt3a-conditioned media (CM) for 4 h. Free β-catenin was determined using a GST-E-cadherin pull-down assay. Cells were lysed for 30 minutes at 4° C. Protein concentrations in lysates were quantified, and equal quantities of total proteins from different samples were incubated with GST-E-cadherin Sepharose beads for 4 h at 4° C. After incubation, the beads were washed three times and the bound proteins were eluted and separated via SDS-PAGE. Western blotting was performed using antibody to β-catenin.
In these experiments, mice bearing established MMTV-Wnt1 tumor transplants were divided into three groups (five animals per group) and were i.p. injected with PBS (vehicle), Mesd, or Mesd peptide every other day. Tumor volume was analyzed using caliper measurement. Data represent at least three independent experiments and each time point represents the mean tumor volume±SEM. *p<0.05; **p<0.01. […] Scale bar=50 μm.

MMTV-Wnt1 tumors = assay: MMTV-Wnt1 tumor transplant growth in nude mice; format: in vivo; conditions: i.p. every other day, first dose 15 mg/kg then 10 mg/kg, three weeks
Experimental: Recombinant Mesd protein was prepared as described (Li Y, et al. (2005) J Cell Sci 118(22): 5305-5314). Mesd peptide, […] (SEQ ID NO: 14), was manufactured by Abgent (San Diego). Female athymic nude mice (Taconic) (6-8 weeks old) were used for passaging tumors from MMTV-Wnt1 mice (Taconic). MMTV-Wnt1 tumors were serially passaged in mice by implantation in the mammary fat pad as described (DeAlmeida V, et al. (2007) Cancer Res 67, 5371-5379). Therapeutic agents (200 μL Mesd protein, Mesd peptide or PBS) were administrated i.p. with a first dose of 15 mg/kg, followed by 10 mg/kg (9 more doses). Three groups of mice were treated every other day for three weeks and tumor volumes were measured thrice weekly.
The pharmacokinetics and bioavailability of Mesd and Mesd peptide ([…] (SEQ ID NO: 14)) were first investigated (FIG. 23). Cells from MMTV-Wnt1 tumors were injected into the mammary fat pads of female nude mice, and the resultant mice were subsequently randomly grouped when the mean tumor volume reached ca. 200 mm^3. […]
In these experiments, mice bearing established MMTV-Wnt1 tumor transplants were divided into three groups (five animals per group) and were i.p. injected with PBS (vehicle), Mesd, or Mesd peptide every other day. Tumor volume was analyzed using caliper measurement. […]

[3] = mouse, in vivo; remark: listed apart in the source
Experimental: In experiments shown in FIG. 23, pharmacokinetics of Mesd peptide and Mesd were examined. FIG. 23A: Amount of Mesd in serum following a single dose of protein administration. Mice were dosed at 5, 10, 20 mg/kg of Mesd via i.p. and the serum samples were collected from individual mice at the indicated time points. The levels of Mesd in serum were quantified by comparison to Mesd pure protein with known concentrations in Western blot analysis. Values are the average of triple determinations with S.D. indicated by error bars. […] Samples were obtained by terminal bleed under anesthesia at each of the indicated time points (N=3 animals per time point). Radioactivity was measured using a gamma counter and DPM converted to mass units/mL blood using the specific activity (DPM/mass) of each test substance. Data are plotted as mass U/mL of test substance with standard deviation indicated by error bars.

Wnt signaling [4] = assay: TCF/LEF-luc reporter assay in Wnt-3A-treated HEK293 cells; format: cell-based; conditions: Wnt3A conditioned medium plus Dkk1 at 10 nM, 16 hours at 37° C.
Experimental: HEK293 cells were plated into six-well plates. For each well, 0.1 μg of the TOP-FLASHTCF luciferase construct (Upstate Biotechnology) was cotransfected with 0.8 μg Mesd-expressing vector, 0.8 μg Mesd mutant-expressing vector, or empty vector. A β-galactosidase-expressing vector (Promega, Madison, Wis.) was included as an internal control for transfection efficiency. After 48 hours, cells were lysed and both luciferase and β-galactosidase activities were determined with enzyme assay kits (Promega). The luciferase activity was determined with a luminometer using the Dual Luciferase Assay system (Promega). Luciferase activity was normalized to the activity of the β-galactosidase.
In these experiments, transfected cells were treated without Wnt-3A or with Wnt-3A plus the indicated inhibitors (Mesd and/or Dkk1) for 16 hours at 37° C. Wnt signaling was measured by quantifying the luciferase activity using a live cell imaging system.

HCC1187 cells = assay: MTT assay of Wnt3a CM-stimulated growth of HCC1187 cells; format: cell-based, human; conditions: Dkk1 10 nM, 24 h
Experimental: Cell growth and cell proliferation were measured by MTT assay (Promega) and BrdU incorporation using the BrdU ELISA kit (Roche Molecular Systems) according to the manufacturers' instructions. […] Breast cancer cells expressing control or LRP6 shRNA were seeded into 48-well plates. MTT-labeling reagent was added to each well 24 h later, and plates were incubated at 37° C. for 4 h. After the incubation period, the formazan crystals were dissolved in an MTT solubilization reagent and the resulting color was quantified spectrophotometrically. In some experiments, cell proliferation was measured by BrdU incorporation using the BrdU ELISA kit (Roche Molecular Systems) according to the manufacturer's instructions. Briefly, cancer cells expressing control or LRP6 shRNA were plated on 96-well plate. Cells were incubated with BrdU for 24 h, and the newly synthesized BrdU-DNA was then determined by colorimetry using an ELISA reader. All experiments were performed three times in triplicate.
In FIG. 20, * indicates p<0.05 compared to L cell CM; ** indicates p<0.01 compared to L cell CM.

Molecule | Adverse effect on small intestine (gross examination) [1] | Architecture of gastrointestinal compartments and skin (H&E) [1] | Bone lesions or outgrowths in tail vertebrae [1] | General health and body weight of treated mice [1] | Wnt signaling in tumors compared to control treatment (Wnt signaling [2]) | Tumor growth (tumor volume, caliper) (MMTV-Wnt1 tumors) | Bioavailability [3] [%] | Distribution into tissues [3] | Inhibition of Wnt signaling (luciferase activity) (Wnt signaling [4]) | Effect on Wnt3a CM-increased cell growth (HCC1187 cells)
KGGGSKEKNKTKQDKGKKKKEGDLKSRSSKEENRAGNK [Mesd peptide] | no significant adverse effect | morphologically normal | no significant bone lesions or outgrowths | grossly healthy and maintain their weights | decreased Wnt signaling | significantly inhibit tumor growth | 60 | rapid and widespread |  | 
Dkk1: Human recombinant DKK1 protein, LRP6-specific ligand and antagonist (protein) TLNSVLNSNAIKNLPPPLGGAAGHPGSAVSAAPGILYPGGNKYQTIDNYQPYPCAEDEECGTDEYCASPTRGGDAGVQICLACRKRRKRCMRHAMCCPGNYCKNGICVSSDQNHFRGEIEETITESFGNDHSTLDGYSRRTTLSSKMYHTKGQEGSVCLRSSDCASGLCCARHFWSKICKPVLKEGQVCTKHRRKGSHGLEIFQRCYCGEGLSCRIQKDHHQASNSSRLHTCQRH |  |  |  |  |  |  |  |  | more potent inhibitor | abolished
